Consider three molecules from the supplement of paper PMC11061612.

Assay [1] deals with JVM-3 (B-Cell Non-Hodgkin's Lymphoma). The assay can be described thus: Bliss excess, mean over the matrix (fraction); higher = more synergy. The procedure, abridged:
(§1)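 Bliss excess equals the observed combination effect minus the expected value EA + EB − EA·EB, where EA and EB are the effects of each agent alone. Combination Emax is the second-highest inhibition within the matrix. Inhibition was scaled from CellTiter-Glo 2.0 luminescence, with 0 set by vehicle wells and 1 by blank wells, after 72 hours of two-drug dosing of cells plated in 1536-well plates.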

The test system is the same in assay [2]. The assay can be described thus: combination Emax (second highest fraction inhibited in the dose matrix, 72 h); higher = more inhibition; extreme values may be limits of the assay. The procedure, abridged: as §1
A further assay concerns NB69 (Neuroblastoma). The description is as above. The procedure, abridged: as §1
Assay [3] concerns OSC-20 (Oral Cavity Carcinoma). The assay is described as above. The procedure, abridged: as §1

Turning to `CC1(C)CCC(CN2CCN(c3ccc(C(=O)NS(=O)(=O)c4ccc(NCC5CCOCC5)c([N+](=O)[O-])c4)c(Oc4cnc5[nH]ccc5c4)c3)CC2)=C(c2ccc(Cl)cc2)C1` [Venetoclax] + C[C@@H](Nc1cc(F)cc(F)c1)c1cc(C(=O)N(C)C)cc2c(=O)cc(N3CCOCC3)oc12 [AZD8186] (first compound max 1 µM, 7x7, partner max 3 µM), in assay [1], the Bliss excess was -0.0619. In addition, the “combination Emax” value is 0.486 in assay [2], 0.998 in the assay on NB69 (Neuroblastoma) and 0.128 in assay [3].
For `CC1(C)CCC(CN2CCN(c3ccc(C(=O)NS(=O)(=O)c4ccc(NCC5CCOCC5)c([N+](=O)[O-])c4)c(Oc4cnc5[nH]ccc5c4)c3)CC2)=C(c2ccc(Cl)cc2)C1` [Venetoclax] + Cc1cc2ncnn2cc1Nc1ncc2c(n1)n(C1CCOCC1)c(=O)n2C [AZD7648] (first compound max 1 µM, 7x7, partner max 10 µM), in that order: -0.0799, 0.64, 0.523 and 0.205.
For the molecule `CC1(C)CCC(CN2CCN(c3ccc(C(=O)NS(=O)(=O)c4ccc(NCC5CCOCC5)c([N+](=O)[O-])c4)c(Oc4cnc5[nH]ccc5c4)c3)CC2)=C(c2ccc(Cl)cc2)C1` [Venetoclax] + Cn1cnc2c(F)c(Nc3ccc(Br)cc3Cl)c(C(=O)NOCCO)cc21 [Selumetinib] (first compound max 1 µM, 7x7, partner max 3 µM), the Bliss excess in assay [1] was -0.0583. Further, the entries for the “combination Emax” value (in assay [2]; in the assay with NB69 (Neuroblastoma); in assay [3]) were 0.486, 0.919 and 0.172, respectively.
